Test results reported in PubChem BioAssay (NCI).
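Where inhibition never reached the appropriate level, the endpoint shown equals the highest concentration tested. Otherwise, values were interpolated linearly from a five-concentration, 48-hour dose response in 96-well plates. TGI is the concentration that stops growth completely.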

Columns and labels:
Assay in all cases: NCI-60 cell line screen, 48 h
786-0 renal = system: 786-0 renal
A498 renal = system: A498 renal
A549 NSCLC = system: A549 NSCLC
ACHN renal = system: ACHN renal
CAKI-1 renal = system: CAKI-1 renal
CCRF-CEM leukemia = system: CCRF-CEM leukemia
COLO 205 colon = system: COLO 205 colon
DLD-1 colon = system: DLD-1 colon
DMS 114 small cell lung = system: DMS 114 small cell lung
DMS 273 small cell lung = system: DMS 273 small cell lung
EKVX NSCLC = system: EKVX NSCLC
HCC-2998 colon = system: HCC-2998 colon
HCT-116 colon = system: HCT-116 colon
HCT-15 colon = system: HCT-15 colon
HL-60(TB) leukemia = system: HL-60(TB) leukemia
HOP-18 NSCLC = system: HOP-18 NSCLC
HOP-62 NSCLC = system: HOP-62 NSCLC
HOP-92 NSCLC = system: HOP-92 NSCLC
HT29 colon = system: HT29 colon
IGROV1 ovarian = system: IGROV1 ovarian
K-562 leukemia = system: K-562 leukemia
KM12 colon = system: KM12 colon
KM20L2 colon = system: KM20L2 colon
LOX IMVI melanoma = system: LOX IMVI melanoma
LXFL 529 NSCLC = system: LXFL 529 NSCLC
M14 melanoma = system: M14 melanoma
MALME-3M melanoma = system: MALME-3M melanoma
NCI-H226 lung = system: NCI-H226 lung
NCI-H23 lung = system: NCI-H23 lung
NCI-H460 lung = system: NCI-H460 lung
NCI-H522 lung = system: NCI-H522 lung
OVCAR-3 ovarian = system: OVCAR-3 ovarian
OVCAR-4 ovarian = system: OVCAR-4 ovarian
OVCAR-5 ovarian = system: OVCAR-5 ovarian
OVCAR-8 ovarian = system: OVCAR-8 ovarian
RXF 393 renal = system: RXF 393 renal
RXF-631 renal = system: RXF-631 renal
SF-268 CNS = system: SF-268 CNS
SF-295 CNS = system: SF-295 CNS
SF-539 CNS = system: SF-539 CNS
SK-MEL-2 melanoma = system: SK-MEL-2 melanoma
SK-MEL-28 melanoma = system: SK-MEL-28 melanoma
SK-MEL-5 melanoma = system: SK-MEL-5 melanoma
SK-OV-3 ovarian = system: SK-OV-3 ovarian
SN12C renal = system: SN12C renal
SNB-19 CNS = system: SNB-19 CNS
SNB-75 CNS = system: SNB-75 CNS
SNB-78 CNS = system: SNB-78 CNS
SW-620 colon = system: SW-620 colon
TK-10 renal = system: TK-10 renal
U251 CNS = system: U251 CNS
UACC-257 melanoma = system: UACC-257 melanoma
UACC-62 melanoma = system: UACC-62 melanoma
UO-31 renal = system: UO-31 renal
XF 498 CNS = system: XF 498 CNS
MOLT-4 leukemia = system: MOLT-4 leukemia
RPMI-8226 leukemia = system: RPMI-8226 leukemia

SMILES: CCOC(=O)C1SC(=Nc2ccc(OC)c(OC)c2)N=C1C (centres undefined)
- TGI (786-0 renal): 90.2 µM
- TGI (A498 renal): > 100 µM
- TGI (A549 NSCLC): > 100 µM
- TGI (ACHN renal): > 100 µM
- TGI (CAKI-1 renal): > 100 µM
- TGI (CCRF-CEM leukemia): 59 µM
- TGI (COLO 205 colon): > 100 µM
- TGI (DLD-1 colon): > 100 µM
- TGI (DMS 114 small cell lung): 80.5 µM
- TGI (DMS 273 small cell lung): > 100 µM
- TGI (EKVX NSCLC): > 100 µM
- TGI (HCC-2998 colon): > 100 µM
- TGI (HCT-116 colon): > 100 µM
- TGI (HCT-15 colon): > 100 µM
- TGI (HL-60(TB) leukemia): 49.1 µM
- TGI (HOP-18 NSCLC): > 100 µM
- TGI (HOP-62 NSCLC): > 100 µM
- TGI (HOP-92 NSCLC): > 100 µM
- TGI (HT29 colon): 34.8 µM
- TGI (IGROV1 ovarian): > 100 µM
- TGI (K-562 leukemia): > 100 µM
- TGI (KM12 colon): > 100 µM
- TGI (KM20L2 colon): 76.3 µM
- TGI (LOX IMVI melanoma): > 100 µM
- TGI (LXFL 529 NSCLC): > 100 µM
- TGI (M14 melanoma): > 100 µM
- TGI (MALME-3M melanoma): 83.4 µM
- TGI (NCI-H226 lung): > 100 µM
- TGI (NCI-H23 lung): > 100 µM
- TGI (NCI-H460 lung): > 100 µM
- TGI (NCI-H522 lung): 32.3 µM
- TGI (OVCAR-3 ovarian): 86.7 µM
- TGI (OVCAR-4 ovarian): > 100 µM
- TGI (OVCAR-5 ovarian): > 100 µM
- TGI (OVCAR-8 ovarian): > 100 µM
- TGI (RXF 393 renal): > 100 µM
- TGI (RXF-631 renal): > 100 µM
- TGI (SF-268 CNS): > 100 µM
- TGI (SF-295 CNS): > 100 µM
- TGI (SF-539 CNS): > 100 µM
- TGI (SK-MEL-2 melanoma): > 100 µM
- TGI (SK-MEL-28 melanoma): > 100 µM
- TGI (SK-MEL-5 melanoma): 37.2 µM
- TGI (SK-OV-3 ovarian): > 100 µM
- TGI (SN12C renal): > 100 µM
- TGI (SNB-19 CNS): > 100 µM
- TGI (SNB-75 CNS): 71.1 µM
- TGI (SNB-78 CNS): > 100 µM
- TGI (SW-620 colon): > 100 µM
- TGI (TK-10 renal): > 100 µM
- TGI (U251 CNS): > 100 µM
- TGI (UACC-257 melanoma): > 100 µM
- TGI (UACC-62 melanoma): 67.9 µM
- TGI (UO-31 renal): 86.7 µM
- TGI (XF 498 CNS): 68.8 µM

SMILES: CC(C)C(=O)N1Cc2cc(Cl)cc(Cl)c2OC(=O)c2ccccc21
- TGI (786-0 renal): > 100 µM
- TGI (A498 renal): 97.9 µM
- TGI (A549 NSCLC): > 100 µM
- TGI (ACHN renal): 72.9 µM
- TGI (CAKI-1 renal): 64 µM
- TGI (CCRF-CEM leukemia): 94.7 µM
- TGI (COLO 205 colon): > 100 µM
- TGI (DLD-1 colon): > 100 µM
- TGI (DMS 114 small cell lung): 74 µM
- TGI (DMS 273 small cell lung): > 100 µM
- TGI (EKVX NSCLC): 67.2 µM
- TGI (HCC-2998 colon): 60.3 µM
- TGI (HCT-116 colon): > 100 µM
- TGI (HCT-15 colon): 85.9 µM
- TGI (HL-60(TB) leukemia): 57.6 µM
- TGI (HOP-18 NSCLC): 93.1 µM
- TGI (HOP-62 NSCLC): > 100 µM
- TGI (HOP-92 NSCLC): 62.7 µM
- TGI (HT29 colon): > 100 µM
- TGI (IGROV1 ovarian): 81 µM
- TGI (K-562 leukemia): > 100 µM
- TGI (KM12 colon): > 100 µM
- TGI (KM20L2 colon): 57.8 µM
- TGI (LOX IMVI melanoma): 59 µM
- TGI (LXFL 529 NSCLC): 34.3 µM
- TGI (M14 melanoma): 61.7 µM
- TGI (MALME-3M melanoma): 49.3 µM
- TGI (MOLT-4 leukemia): 62 µM
- TGI (NCI-H226 lung): 58.7 µM
- TGI (NCI-H23 lung): > 100 µM
- TGI (NCI-H460 lung): > 100 µM
- TGI (NCI-H522 lung): 40.9 µM
- TGI (OVCAR-3 ovarian): 60.8 µM
- TGI (OVCAR-4 ovarian): 74 µM
- TGI (OVCAR-5 ovarian): 90 µM
- TGI (OVCAR-8 ovarian): > 100 µM
- TGI (RPMI-8226 leukemia): 96.8 µM
- TGI (RXF-631 renal): > 100 µM
- TGI (SF-268 CNS): 41.5 µM
- TGI (SF-295 CNS): > 100 µM
- TGI (SF-539 CNS): 35.4 µM
- TGI (SK-MEL-2 melanoma): 50 µM
- TGI (SK-MEL-28 melanoma): > 100 µM
- TGI (SK-MEL-5 melanoma): 38.3 µM
- TGI (SK-OV-3 ovarian): 84.5 µM
- TGI (SN12C renal): > 100 µM
- TGI (SNB-19 CNS): > 100 µM
- TGI (SNB-75 CNS): 96.5 µM
- TGI (SNB-78 CNS): > 100 µM
- TGI (SW-620 colon): 94.9 µM
- TGI (TK-10 renal): > 100 µM
- TGI (UACC-257 melanoma): 32.8 µM
- TGI (UACC-62 melanoma): 42.2 µM
- TGI (UO-31 renal): > 100 µM
